This note sets out measurements from patent publication US9340590B2 (priority 2011, dated 2016).

What all share (test): cell-based
One assay deals with hNav1.3 (Homo sapiens, UniProt Q9NY46). As to conditions: IonWorks Quattro, read-out: IWQ Use Nav1.3.
Another assay concerns the target hNav1.7 (Homo sapiens, UniProt Q15858). In kind it is cell-based.
The next assay deals with hNav1.5 (Homo sapiens, UniProt Q14524). As to conditions: IonWorks Quattro, read-out: IWQ Use Nav1.5.
[1] abbreviates: Table 23, IonWorks Quattro, use, […], read-out: IWQ Use Nav1.7.

pIC50: −log10 of the molar value. Where two headings read alike, the source gives them in different places. Positions of bridges follow the written chain, without caps; N, C: chain ends. Non-standard residues stand in square brackets, D forms with d. Residues, ends and D or L forms follow the SMILES beside them. 1Nal = N[C@@H](Cc1cccc2ccccc12)C(=O)O

hNav1.5, sequence (Q14524 whole entry, looked up): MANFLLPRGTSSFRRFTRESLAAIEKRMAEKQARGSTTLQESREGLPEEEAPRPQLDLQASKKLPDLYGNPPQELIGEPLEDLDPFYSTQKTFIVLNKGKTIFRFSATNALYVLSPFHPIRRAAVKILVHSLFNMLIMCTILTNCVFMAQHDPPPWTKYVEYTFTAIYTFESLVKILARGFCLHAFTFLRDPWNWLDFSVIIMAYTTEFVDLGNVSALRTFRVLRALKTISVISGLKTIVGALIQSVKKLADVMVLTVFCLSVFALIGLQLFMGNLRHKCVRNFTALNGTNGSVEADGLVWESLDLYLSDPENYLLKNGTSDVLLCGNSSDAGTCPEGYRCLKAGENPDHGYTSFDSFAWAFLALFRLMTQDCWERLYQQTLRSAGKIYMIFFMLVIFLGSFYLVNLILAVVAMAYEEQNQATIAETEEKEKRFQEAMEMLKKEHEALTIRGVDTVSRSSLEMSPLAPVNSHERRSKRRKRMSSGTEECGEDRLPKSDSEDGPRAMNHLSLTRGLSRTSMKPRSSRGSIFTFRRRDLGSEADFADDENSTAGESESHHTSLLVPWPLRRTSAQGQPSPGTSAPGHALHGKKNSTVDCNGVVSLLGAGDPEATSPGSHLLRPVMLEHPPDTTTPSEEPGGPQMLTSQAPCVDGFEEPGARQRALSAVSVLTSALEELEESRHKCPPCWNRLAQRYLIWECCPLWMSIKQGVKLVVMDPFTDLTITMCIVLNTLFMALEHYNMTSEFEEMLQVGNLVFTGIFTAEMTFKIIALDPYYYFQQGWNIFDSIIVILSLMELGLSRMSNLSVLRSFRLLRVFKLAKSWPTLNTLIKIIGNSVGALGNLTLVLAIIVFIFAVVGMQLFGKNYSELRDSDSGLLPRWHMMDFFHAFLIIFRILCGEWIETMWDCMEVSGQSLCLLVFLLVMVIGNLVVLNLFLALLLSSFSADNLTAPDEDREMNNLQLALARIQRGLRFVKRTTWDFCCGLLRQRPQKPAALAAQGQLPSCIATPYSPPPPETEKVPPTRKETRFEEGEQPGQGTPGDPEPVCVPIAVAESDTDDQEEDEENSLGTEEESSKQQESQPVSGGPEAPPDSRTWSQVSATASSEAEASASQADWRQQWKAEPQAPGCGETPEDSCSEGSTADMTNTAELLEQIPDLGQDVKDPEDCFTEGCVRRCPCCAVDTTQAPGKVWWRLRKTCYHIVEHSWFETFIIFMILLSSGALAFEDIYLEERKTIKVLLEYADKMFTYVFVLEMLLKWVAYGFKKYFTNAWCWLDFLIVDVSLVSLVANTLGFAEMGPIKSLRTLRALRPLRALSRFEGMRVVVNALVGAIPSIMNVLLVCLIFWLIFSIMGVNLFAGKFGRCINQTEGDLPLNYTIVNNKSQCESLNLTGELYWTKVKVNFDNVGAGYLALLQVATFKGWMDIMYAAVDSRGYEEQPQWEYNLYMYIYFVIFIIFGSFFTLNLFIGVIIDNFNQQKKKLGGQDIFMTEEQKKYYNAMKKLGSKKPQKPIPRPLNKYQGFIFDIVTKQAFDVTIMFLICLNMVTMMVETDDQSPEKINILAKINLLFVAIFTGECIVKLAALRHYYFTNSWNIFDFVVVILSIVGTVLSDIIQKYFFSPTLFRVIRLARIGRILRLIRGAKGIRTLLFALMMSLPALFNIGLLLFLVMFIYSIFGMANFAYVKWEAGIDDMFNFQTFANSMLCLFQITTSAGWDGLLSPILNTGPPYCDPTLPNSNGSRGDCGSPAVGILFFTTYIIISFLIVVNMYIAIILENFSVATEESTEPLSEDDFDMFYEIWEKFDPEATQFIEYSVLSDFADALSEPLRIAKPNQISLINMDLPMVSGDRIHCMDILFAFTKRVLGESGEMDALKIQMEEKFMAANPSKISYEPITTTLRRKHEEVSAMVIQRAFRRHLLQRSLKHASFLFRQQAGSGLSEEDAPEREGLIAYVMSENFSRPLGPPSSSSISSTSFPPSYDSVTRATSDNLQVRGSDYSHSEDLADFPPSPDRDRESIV
hNav1.3, sequence (Q9NY46 whole entry, looked up): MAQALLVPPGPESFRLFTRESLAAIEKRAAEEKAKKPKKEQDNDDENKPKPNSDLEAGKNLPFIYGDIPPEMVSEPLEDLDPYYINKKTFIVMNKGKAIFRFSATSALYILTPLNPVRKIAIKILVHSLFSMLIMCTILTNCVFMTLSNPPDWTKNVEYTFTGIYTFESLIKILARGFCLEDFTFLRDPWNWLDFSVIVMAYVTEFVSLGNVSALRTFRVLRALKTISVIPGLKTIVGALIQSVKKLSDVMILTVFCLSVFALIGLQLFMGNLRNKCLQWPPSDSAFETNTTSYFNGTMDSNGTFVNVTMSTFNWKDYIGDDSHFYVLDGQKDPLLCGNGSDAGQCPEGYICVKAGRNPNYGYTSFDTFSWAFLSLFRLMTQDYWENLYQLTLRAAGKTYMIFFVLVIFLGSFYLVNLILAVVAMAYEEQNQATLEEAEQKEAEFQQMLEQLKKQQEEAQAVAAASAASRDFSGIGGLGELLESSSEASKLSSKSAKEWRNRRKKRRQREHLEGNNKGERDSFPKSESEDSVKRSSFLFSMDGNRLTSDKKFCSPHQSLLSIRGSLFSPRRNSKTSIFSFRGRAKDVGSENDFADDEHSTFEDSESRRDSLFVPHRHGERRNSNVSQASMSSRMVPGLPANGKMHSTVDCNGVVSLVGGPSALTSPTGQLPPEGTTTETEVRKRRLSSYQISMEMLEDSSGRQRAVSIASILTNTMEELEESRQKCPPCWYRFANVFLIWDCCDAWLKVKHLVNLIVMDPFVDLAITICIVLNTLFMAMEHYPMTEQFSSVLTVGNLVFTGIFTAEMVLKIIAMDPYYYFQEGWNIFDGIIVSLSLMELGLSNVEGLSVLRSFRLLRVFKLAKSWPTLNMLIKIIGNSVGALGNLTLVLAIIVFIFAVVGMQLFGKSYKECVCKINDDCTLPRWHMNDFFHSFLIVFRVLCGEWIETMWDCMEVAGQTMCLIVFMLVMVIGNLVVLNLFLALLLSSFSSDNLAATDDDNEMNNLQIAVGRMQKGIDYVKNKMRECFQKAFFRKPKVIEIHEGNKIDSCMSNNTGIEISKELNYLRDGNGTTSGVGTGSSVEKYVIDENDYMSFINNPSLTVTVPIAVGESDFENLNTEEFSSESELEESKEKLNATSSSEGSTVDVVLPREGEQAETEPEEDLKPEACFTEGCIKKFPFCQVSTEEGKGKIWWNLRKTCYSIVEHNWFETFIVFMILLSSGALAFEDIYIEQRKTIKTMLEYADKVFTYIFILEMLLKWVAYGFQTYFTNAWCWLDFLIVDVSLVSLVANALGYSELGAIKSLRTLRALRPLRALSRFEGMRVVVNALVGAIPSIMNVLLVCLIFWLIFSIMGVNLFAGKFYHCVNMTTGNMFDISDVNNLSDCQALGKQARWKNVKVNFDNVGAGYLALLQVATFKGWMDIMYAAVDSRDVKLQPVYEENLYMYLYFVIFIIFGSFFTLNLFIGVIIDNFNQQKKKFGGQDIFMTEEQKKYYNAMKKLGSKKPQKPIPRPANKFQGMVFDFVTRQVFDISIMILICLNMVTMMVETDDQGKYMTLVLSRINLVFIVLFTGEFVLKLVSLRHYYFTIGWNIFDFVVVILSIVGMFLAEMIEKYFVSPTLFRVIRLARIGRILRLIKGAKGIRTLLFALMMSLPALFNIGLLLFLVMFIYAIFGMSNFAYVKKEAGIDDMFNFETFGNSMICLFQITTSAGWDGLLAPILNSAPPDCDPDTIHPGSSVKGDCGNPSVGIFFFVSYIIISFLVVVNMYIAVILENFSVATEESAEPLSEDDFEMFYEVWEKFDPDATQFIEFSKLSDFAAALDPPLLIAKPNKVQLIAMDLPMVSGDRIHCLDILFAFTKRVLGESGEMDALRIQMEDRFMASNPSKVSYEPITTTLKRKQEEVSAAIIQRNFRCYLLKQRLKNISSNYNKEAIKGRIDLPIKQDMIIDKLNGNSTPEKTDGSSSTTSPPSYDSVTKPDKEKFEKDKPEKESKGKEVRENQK

As to `CC[C@H](C)[C@@H]1NC(=O)[C@@H]2CSSC[C@@H]3NC(=O)[C@H](C(C)C)NC(=O)[C@H](CC(C)C)NC(=O)[C@H](CC(N)=O)NC(=O)[C@@H]4CCCN4C(=O)[C@H](CCCNC(=N)N)NC(=O)[C@H](CSSC[C@H](NC(=O)[C@@H](N)CC(=O)O)C(=O)N[C@@H](CC(C)C)C(=O)NCC(=O)N[C@@H](Cc4ccccc4)C(=O)N[C@@H](CCSC)C(=O)N[C@@H](CCCNC(=N)N)C(=O)N[C@@H](CCCCN)C(=O)N2)NC(=O)[C@H](CSSC[C@@H](C(=O)N[C@@H](CCCCN)C(=O)N[C@@H](CCCCN)C(=O)N[C@H](C(=O)N[C@@H](Cc2cccc4ccccc24)C(=O)N[C@@H](Cc2c[nH]c4ccccc24)C(N)=O)C(C)C)NC(=O)[C@H](Cc2c[nH]c4ccccc24)NC(=O)[C@H](CCCCN)NC(=O)[C@H](Cc2c[nH]cn2)NC(=O)[C@H]([C@@H](C)O)NC(=O)[C@H](CCCNC(=N)N)NC(=O)[C@H](CO)NC3=O)NC(=O)[C@H](CCCCN)NC(=O)[C@H](CC(=O)O)NC(=O)[C@H](CC(N)=O)NC(=O)[C@H](CC(=O)O)NC(=O)[C@@H]2CCCN2C1=O` [compound 99] (H-DCLGFMRKCIPDNDKCCRPNLVCSRTHKWCKKV[1Nal]W-NH2; disulfide 2-17, 9-23, 16-30), the pIC50 was 6.80 on hNav1.3 (use-dependent block, hNav1.3); 6.96 at hNav1.7 (IonWorks Quattro, use-dependent block, hNav1.7, read-out: IWQ Use Nav1.7); 5.04 on hNav1.5 (use-dependent block, hNav1.5).
Take `CC[C@H](C)[C@@H]1NC(=O)[C@@H]2CSSC[C@@H]3NC(=O)[C@H](C(C)C)NC(=O)[C@H](CC(C)C)NC(=O)[C@H](CC(N)=O)NC(=O)[C@@H]4CCCN4C(=O)[C@H](CCCNC(=N)N)NC(=O)[C@H](CSSC[C@H](NC(=O)[C@@H](N)CC(=O)O)C(=O)N[C@@H](CC(C)C)C(=O)NCC(=O)N[C@@H](Cc4ccccc4)C(=O)N[C@@H](CCSC)C(=O)N[C@@H](CCCNC(=N)N)C(=O)N[C@@H](CCCCN)C(=O)N2)NC(=O)[C@H](CSSC[C@@H](C(=O)N[C@@H](CCCCN)C(=O)N[C@@H](Cc2ccc(O)cc2)C(=O)N[C@H](C(=O)N[C@@H](C)C(N)=O)C(C)C)NC(=O)[C@H](Cc2c[nH]c4ccccc24)NC(=O)[C@H](CCCCN)NC(=O)[C@H](Cc2cnc[nH]2)NC(=O)[C@H]([C@@H](C)O)NC(=O)[C@H](CCCNC(=N)N)NC(=O)[C@H](CO)NC3=O)NC(=O)[C@H](CCCCN)NC(=O)[C@H](CC(=O)O)NC(=O)[C@H](CC(N)=O)NC(=O)[C@H](CC(=O)O)NC(=O)[C@@H]2CCCN2C1=O` [compound 101] (H-DCLGFMRKCIPDNDKCCRPNLVCSRTHKWCKYVA-NH2; disulfide 2-17, 9-23, 16-30): the pIC50 on hNav1.3 (use-dependent, […]) was 5.32; on hNav1.7 it was 5.14; at hNav1.5 (use-dependent, […]), 5.03.
In the case of `CC[C@H](C)[C@@H]1NC(=O)[C@@H]2CSSC[C@@H]3NC(=O)[C@H](C(C)C)NC(=O)[C@H](CC(C)C)NC(=O)[C@H](CC(N)=O)NC(=O)[C@@H]4CCCN4C(=O)[C@H](CCCNC(=N)N)NC(=O)[C@H](CSSC[C@H](NC(=O)[C@@H](N)CC(=O)O)C(=O)N[C@@H](CC(C)C)C(=O)NCC(=O)N[C@@H](Cc4ccccc4)C(=O)N[C@@H](CCSC)C(=O)N[C@@H](CCCNC(=N)N)C(=O)N[C@@H](CCCCN)C(=O)N2)NC(=O)[C@H](CSSC[C@@H](C(=O)N[C@@H](CCCCN)C(=O)N[C@@H](Cc2ccc(O)cc2)C(=O)N[C@H](C(=O)N[C@@H](Cc2ccccc2)C(N)=O)C(C)C)NC(=O)[C@H](Cc2c[nH]c4ccccc24)NC(=O)[C@H](CCCCN)NC(=O)[C@H](Cc2cnc[nH]2)NC(=O)[C@H]([C@@H](C)O)NC(=O)[C@H](CCCNC(=N)N)NC(=O)[C@H](CO)NC3=O)NC(=O)[C@H](CCCCN)NC(=O)[C@H](CC(=O)O)NC(=O)[C@H](CCCNC(=N)N)NC(=O)[C@H](CC(=O)O)NC(=O)[C@@H]2CCCN2C1=O` [compound 103] (H-DCLGFMRKCIPDRDKCCRPNLVCSRTHKWCKYVF-NH2; disulfide 2-17, 9-23, 16-30), the pIC50 on hNav1.3 (Use) is 6.66; at hNav1.7 (IonWorks Quattro, Use, read-out: IWQ Use Nav1.7), 6.80; at hNav1.5 (Use), 4.80.
With `CC[C@H](C)[C@@H]1NC(=O)[C@@H]2CSSC[C@@H]3NC(=O)[C@H](C(C)C)NC(=O)[C@H](CC(C)C)NC(=O)[C@H](CC(N)=O)NC(=O)[C@@H]4CCCN4C(=O)[C@H](CCCNC(=N)N)NC(=O)[C@H](CSSC[C@H](NC(=O)[C@@H](N)CC(=O)O)C(=O)N[C@@H](CC(C)C)C(=O)NCC(=O)N[C@@H](Cc4ccccc4)C(=O)N[C@@H](CCSC)C(=O)N[C@@H](CCCNC(=N)N)C(=O)N[C@@H](CCCCN)C(=O)N2)NC(=O)[C@H](CSSC[C@@H](C(=O)N[C@@H](CCCCN)C(=O)N[C@@H](Cc2ccc(O)cc2)C(=O)N[C@H](C(=O)N[C@@H](Cc2ccccc2)C(N)=O)C(C)C)NC(=O)[C@H](CCCNC(=N)N)NC(=O)[C@H](CCCCN)NC(=O)[C@H](Cc2cnc[nH]2)NC(=O)[C@H]([C@@H](C)O)NC(=O)[C@H](CCCNC(=N)N)NC(=O)[C@H](CO)NC3=O)NC(=O)[C@H](CCCCN)NC(=O)[C@H](CC(=O)O)NC(=O)[C@H](CC(N)=O)NC(=O)[C@H](CC(=O)O)NC(=O)[C@@H]2CCCN2C1=O` [compound 104] (H-DCLGFMRKCIPDNDKCCRPNLVCSRTHKRCKYVF-NH2; disulfide 2-17, 9-23, 16-30), the pIC50 on hNav1.3 (Table 24, use, […]) is 4.94; at hNav1.7 (Table 24, IonWorks Quattro, use, […], read-out: IWQ Use Nav1.7), 5.01; at hNav1.5 (Table 24, use, […]), 4.73.
Consider `CC[C@H](C)[C@@H]1NC(=O)[C@@H]2CSSC[C@@H]3NC(=O)[C@H](C(C)C)NC(=O)[C@H](CC(C)C)NC(=O)[C@H](CC(N)=O)NC(=O)[C@@H]4CCCN4C(=O)[C@H](CCCNC(=N)N)NC(=O)[C@H](CSSC[C@H](NC(=O)[C@@H](N)CC(=O)O)C(=O)N[C@@H](CC(C)C)C(=O)NCC(=O)N[C@@H](Cc4ccccc4)C(=O)N[C@@H](CCSC)C(=O)N[C@@H](CCCNC(=N)N)C(=O)N[C@@H](CCCCN)C(=O)N2)NC(=O)[C@H](CSSC[C@@H](C(=O)N[C@@H](CCCCN)C(=O)N[C@@H](Cc2ccc(O)cc2)C(=O)N[C@H](C(=O)N[C@@H](Cc2ccccc2)C(N)=O)C(C)C)NC(=O)[C@H](Cc2c[nH]c4ccccc24)NC(=O)[C@H](CCCCN)NC(=O)[C@H](Cc2ccccc2)NC(=O)[C@H]([C@@H](C)O)NC(=O)[C@H](CCCNC(=N)N)NC(=O)[C@H](CO)NC3=O)NC(=O)[C@H](CCCCN)NC(=O)[C@H](CC(=O)O)NC(=O)[C@H](CC(N)=O)NC(=O)[C@H](CC(=O)O)NC(=O)[C@@H]2CCCN2C1=O` [compound 109] (H-DCLGFMRKCIPDNDKCCRPNLVCSRTFKWCKYVF-NH2; disulfide 2-17, 9-23, 16-30), for which the pIC50 on hNav1.3 (Table 23, use, […]) was 6.28; on hNav1.7 (setting [1]) it was 6.66; on hNav1.5 (Table 23, use, […]), 5.69.
Consider `CC[C@H](C)[C@@H]1NC(=O)[C@@H]2CSSC[C@@H]3NC(=O)[C@H](C(C)C)NC(=O)[C@H](CC(C)C)NC(=O)[C@H](CC(N)=O)NC(=O)[C@@H]4CCCN4C(=O)[C@H](CCCNC(=N)N)NC(=O)[C@H](CSSC[C@H](NC(=O)[C@@H](N)CC(=O)O)C(=O)N[C@@H](CC(C)C)C(=O)NCC(=O)N[C@@H](Cc4ccccc4)C(=O)N[C@@H](CCSC)C(=O)N[C@@H](CCCNC(=N)N)C(=O)N[C@@H](CCCCN)C(=O)N2)NC(=O)[C@H](CSSC[C@@H](C(=O)N[C@@H](CCCCN)C(=O)N[C@@H](Cc2ccc(O)cc2)C(=O)N[C@H](C(=O)N[C@@H](Cc2ccccc2)C(N)=O)C(C)C)NC(=O)[C@H](Cc2c[nH]c4ccccc24)NC(=O)[C@H](CCCCN)NC(=O)[C@H](Cc2ccc(O)cc2)NC(=O)[C@H]([C@@H](C)O)NC(=O)[C@H](CCCNC(=N)N)NC(=O)[C@H](CO)NC3=O)NC(=O)[C@H](CCCCN)NC(=O)[C@H](CC(=O)O)NC(=O)[C@H](CC(N)=O)NC(=O)[C@H](CC(=O)O)NC(=O)[C@@H]2CCCN2C1=O` [compound 110] (H-DCLGFMRKCIPDNDKCCRPNLVCSRTYKWCKYVF-NH2; disulfide 2-17, 9-23, 16-30), for which the pIC50 on hNav1.3 (Table 23, use, […]) was 6.51; on hNav1.7 (setting [1]), 6.72; on hNav1.5 (Table 23, use, […]) it was 5.19.
The matching figures for `CC[C@H](C)[C@@H]1NC(=O)[C@@H]2CSSC[C@@H]3NC(=O)[C@H](C(C)C)NC(=O)[C@H](CC(C)C)NC(=O)[C@H](CC(N)=O)NC(=O)[C@@H]4CCCN4C(=O)[C@H](CCCNC(=N)N)NC(=O)[C@H](CSSC[C@H](NC(=O)[C@@H](N)CC(=O)O)C(=O)N[C@@H](CC(C)C)C(=O)NCC(=O)N[C@@H](Cc4ccccc4)C(=O)N[C@@H](CCSC)C(=O)N[C@@H](CCCNC(=N)N)C(=O)N[C@@H](CCCCN)C(=O)N2)NC(=O)[C@H](CSSC[C@@H](C(=O)N[C@@H](CCCCN)C(=O)N[C@@H](Cc2ccc(O)cc2)C(=O)N[C@H](C(=O)N[C@@H](Cc2ccccc2)C(N)=O)C(C)C)NC(=O)[C@H](Cc2c[nH]c4ccccc24)NC(=O)[C@H](CCCCN)NC(=O)[C@H](CC(C)C)NC(=O)[C@H]([C@@H](C)O)NC(=O)[C@H](CCCNC(=N)N)NC(=O)[C@H](CO)NC3=O)NC(=O)[C@H](CCCCN)NC(=O)[C@H](CC(=O)O)NC(=O)[C@H](CC(N)=O)NC(=O)[C@H](CC(=O)O)NC(=O)[C@@H]2CCCN2C1=O` [compound 111] (H-DCLGFMRKCIPDNDKCCRPNLVCSRTLKWCKYVF-NH2; disulfide 2-17, 9-23, 16-30): 6.00, 5.94 and 5.21.
